The record followed here is US7435837B2, “Dihydrobenzofuranyl alkanamine derivatives and methods for using same” (Wyeth, priority 2003, dated 2008).

pEC50, pKi: −log10 of the molar value. Where a name gives a salt, the structure may show the parent alone. Where only a bound is given, the exact number is not on record here.

Data set [1] has as its target T1, human 5-hydroxytryptamine-2C (h5-HT2C) receptor (Homo sapiens, UniProt P28335).
T1 construct: expressed in transfected cells; host or cells: CHO (Chinese Hamster Ovary) cells; membranes
T1 sequence (P28335 33-458): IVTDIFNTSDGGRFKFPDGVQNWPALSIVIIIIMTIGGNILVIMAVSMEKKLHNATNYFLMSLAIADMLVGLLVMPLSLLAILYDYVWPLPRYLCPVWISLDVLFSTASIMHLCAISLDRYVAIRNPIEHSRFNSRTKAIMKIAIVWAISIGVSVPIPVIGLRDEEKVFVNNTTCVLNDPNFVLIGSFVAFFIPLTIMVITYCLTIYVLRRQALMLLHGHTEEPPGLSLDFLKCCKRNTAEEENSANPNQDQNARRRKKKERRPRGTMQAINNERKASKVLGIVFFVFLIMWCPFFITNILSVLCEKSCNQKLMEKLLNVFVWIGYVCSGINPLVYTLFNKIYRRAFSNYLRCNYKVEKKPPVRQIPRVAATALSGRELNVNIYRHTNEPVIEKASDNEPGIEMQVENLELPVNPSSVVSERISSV
The data set can be described thus: [125I]DOI binding to membranes of CHO cells expressing the human 5-HT2C receptor. As to conditions: [125I]DOI radioligand, CHO cell membranes, room temperature 60 min; read-out: 5-HT2C Affinity Ki.

The target of a further data set is T2, human 5-HT2C receptor (Homo sapiens, UniProt P28335).
T2 sequence (P28335 33-458): T1 sequence (P28335 33-458)
Description: 5-HT2C receptor-stimulated calcium mobilization (FLIPR) in CHO cells.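 As to all read-outs here: Fluo-3-AM fluorescence read on FLIPR every 1 s, agonist added after 10 baseline reads, response taken as peak minus lowest raw fluorescence count.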 The format is cell-based. The note with it: for Emax: CHO, percentage of the response observed with a maximally effective concentration of 5-HT, read-out: 5-HT2C Function Emax (%); for pEC50: calcium mobilization, CHO cells stably expressing human 5-HT2C, read-out: 5-HT2C Function EC50. In general terms: Calcium flux is commonly read through the fluorescence of an indicator in the cells.

As usually defined, the melting point is the temperature of the solid-liquid transition. The term pKi denotes −log10 of the Ki, conventionally taken in molar units. For orientation: Emax means the maximal effect, on the per cent scale that the assay sets. What is called pEC50 is −log10 of the EC50, conventionally taken in molar units.

`NCC1Cc2cc(F)cc(-c3ccccc3Cl)c2O1` (single isomer, unassigned; (-)) (as salt: hydrochloride) [Example 102, (−)-1-[7-(2-chlorophenyl)-5-fluoro-2,3-dihydro-1-benzofuran-2-yl]methanamine] showed a melting point of 206 to 209 °C.

The compound `NCC1Cc2cccc(-c3ccccc3Cl)c2O1` (single isomer, unassigned; (-)) (as salt: hydrochloride) [Example 129, (−)-1-[7-(2-chlorophenyl)-2,3-dihydro-1-benzofuran-2-yl]methanamine] gave a melting point of 186 to 188 °C.

Regarding `NCC1Cc2c(C(F)(F)F)ccc(Cl)c2O1` (racemic) (as salt: hydrochloride) [Example 14, (±)-[7-chloro-4-(trifluoromethyl)-2,3-dihydro-1-benzofuran-2-yl]methanamine], the melting point is above 250 °C.

In the case of `COc1cc(Cl)cc2c1OC(CN)C2` (racemic) (as salt: hydrochloride) [Example 111, (±)-1-(5-chloro-7-methoxy-2,3-dihydro-1-benzofuran-2-yl)methanamine], the melting point lay in the range of 195 to 198 °C.

Consider `Cc1ccccc1-c1c(Cl)ccc2c1OC(CN)C2` (racemic) (as salt: hydrochloride) [Example 399, (±)-{[6-chloro-7-(2-methylphenyl)-2,3-dihydro-1-benzofuran-2-yl]methyl}amine], for which the melting point lay in the range of 204 to 206 °C.

Compound `COc1ccccc1-c1cccc2c1OC(CN)C2` (single isomer, unassigned; (+)) (as salt: hydrochloride) [Example 128, (+)-1-[7-(2-methoxyphenyl)-2,3-dihydro-1-benzofuran-2-yl]methanamine] returned a melting point of 180 to 184 °C.

Consider `NCC1Cc2cccc(-c3ccsc3)c2O1` (single isomer, unassigned; (-)) (as salt: hydrobromid) [Example 46, (−)-1-(7-thien-3-yl-2,3-dihydro-1-benzofuran-2-yl)methanamine], for which the melting point fell in the range of 234 to 235 °C.

`NCC1Cc2cccc(-c3cccc4ccccc34)c2O1` (racemic) (as salt: hydrochloride) [Example 33, (±)-1-[7-(1-naphthyl)-2,3-dihydro-1-benzofuran-2-yl]methanamine]: the melting point was in the range of 120 to 124 °C.

`NCC1Cc2cccc(-c3ccc(Cl)cc3)c2O1` (single isomer, unassigned; (+)) (as salt: hydrobromid) [Example 77, (+)-1-[7-(4-chlorophenyl)-2,3-dihydro-1-benzofuran-2-yl]methanamine] registered a melting point of 229 to 231 °C.

`CC(C)c1cccc2c1OC(CN)C2` (single isomer, unassigned; (-)) (as salt: hydrochloride) [Example 19, (−)-(7-isopropyl-2,3-dihydro-1-benzofuran-2-yl)methylamine] displayed a melting point of 176 to 178 °C.

`Cc1ccc(-c2cccc3c2CC(CN)O3)cc1` (racemic) (as salt: hydrochloride) [Example 121, (±)-1-[4-(4-methylphenyl)-2,3-dihydro-1-benzofuran-2-yl]methanamine] had a melting point of 239 to 241 °C.

Regarding `Cc1cccc(-c2cccc3c2OC(CN)C3)c1` (single isomer, unassigned; (-)) (as salt: hydrochloride) [Example 43, (−)-1-[7-(3-methylphenyl)-2,3-dihydro-1-benzofuran-2-yl]methanamine], the melting point lay in the range of 194 to 196 °C.

Compound `COc1cc2c(c(C(C)(C)C)c1)OC(CN)C2` (single isomer, unassigned; (-)) (as salt: hydrochloride) [Example 115, (−)-1-(7-tert-butyl-5-methoxy-2,3-dihydro-1-benzofuran-2-yl)methanamine] yielded a melting point of 157 to 159 °C.

In the case of `COc1ccc(-c2cccc3c2OC(CN)C3)c(OC)c1` (racemic) (as salt: hydrochloride) [Example 143, (±)-1-[7-(2,4-dimethoxyphenyl)-2,3-dihydro-1-benzofuran-2-yl]methanamine], the melting point lay in the range of 175 to 178 °C.

`NCC1Cc2cc(Cl)cc(C3CCCCC3)c2O1` (racemic) (as salt: hydrochloride) [Example 11, (±)-(5-chloro-7-cyclohexyl-2,3-dihydro-1-benzofuran-2-yl)methylamine] gave a melting point of 210 to 213 °C.

`Cc1cc2c(c(-c3ccccc3)c1)OC(CN)C2` (racemic) (as salt: hydrochloride) [Example 281, (±)-{[(5-methyl-7-phenyl-2,3-dihydro-1-benzofuran-2-yl)methyl]amine] showed a melting point of 227 to 228 °C.

With `NCC1Cc2cccc(-c3ccc(Cl)cc3)c2O1` (single isomer, unassigned; (-)) (as salt: hydrobromid) [Example 78, (−)-1-[7-(4-chlorophenyl)-2,3-dihydro-1-benzofuran-2-yl]methanamine], the melting point is 233 to 235 °C.

`COc1cccc(-c2cccc3c2OC(CN)C3)c1` (racemic) (as salt: hydrochloride) [Example 68, (±)-1-[7-(3-methoxyphenyl)-2,3-dihydro-1-benzofuran-2-yl]methanamine] yielded a melting point of 152 to 154 °C.

With `Cc1ccccc1-c1cc(F)cc2c1OC(CN)C2` (racemic) (as salt: hydrochloride) [Example 104, (±)-1-[5-fluoro-7-(2-methylphenyl)-2,3-dihydro-1-benzofuran-2-yl]methanamine], the melting point was in the range of 229 to 234 °C.

Turning to `Cc1cccc(C)c1-c1cccc2c1CC(CN)O2` (single isomer, unassigned; (+)) [Example 126, (+)-1-[4-(2,6-dimethylphenyl)-2,3-dihydro-1-benzofuran-2-yl]methanamine], in data set [1], the pKi is 7.77. Also, at human 5-HT2C receptor, the Emax is 40% and the pEC50 is 5.57.

As to `Cc1cc2c(c(-c3ccccc3)c1)OC(CN)C2` (racemic) [Example 281, (±)-{[(5-methyl-7-phenyl-2,3-dihydro-1-benzofuran-2-yl)methyl]amine], in data set [1], the pKi is 8.42. Also, on human 5-HT2C receptor, the maximal effect (Emax) is 90% and the pEC50 is 7.46.

With `NCC1Cc2cc(C(F)(F)F)cc(-c3ccsc3)c2O1` (racemic) [Example 342, (±)-{[7-thien-3-yl-5-(trifluoromethyl)-2,3-dihydro-1-benzofuran-2-yl]methyl}amine], the pKi in data set [1] was 7.55. Moreover, on human 5-HT2C receptor, the Emax came out at 80% and the pEC50 is 6.23.

As for `CNCC1Cc2cccc(-c3c(Cl)cccc3Cl)c2O1` (racemic) [Example 433, (±)-[(N-methyl-1-[7-(2,6-dichlorophenyl)-2,3-dihydro-1-benzofuran-2-yl]methanamine], in data set [1], the pKi is 8.46. Besides, on human 5-HT2C receptor, the Emax is 100% and the pEC50 was 9.00.

For `Cc1cccc(C)c1-c1cccc2c1OC(CN)C2` (racemic) [Example 56, (±)-1-[7-(2,6-dimethylphenyl)-2,3-dihydro-1-benzofuran-2-yl]methanamine], the pKi in data set [1] was 9.00. Further, at human 5-HT2C receptor, the Emax worked out at 100% and the pEC50 was 7.22.

Consider `CNCC1Cc2cc(OC)cc(-c3ccccc3F)c2O1` (racemic) [Example 491, (±)-{[7-(2-fluorophenyl)-5-methoxy-2,3-dihydro-1-benzofuran-2-yl]methyl}methylamine], for which the pKi in data set [1] is 7.66. Also, at human 5-HT2C receptor, the Emax was determined as 80% and the pEC50 is 6.70.

On to `NCC1Cc2cc(F)cc(-c3cc(Cl)ccc3Cl)c2O1` (racemic) [Example 221, (±)-{[7-(2,5-dichlorophenyl)-5-fluoro-2,3-dihydro-1-benzofuran-2-yl]methyl}amine], for which the pKi in data set [1] is 8.85. At human 5-HT2C receptor, the Emax was 90% and the pEC50 was 8.70.

Regarding `NCC1Cc2cc(C(F)(F)F)cc(-c3cccnc3)c2O1` (racemic) [Example 343, (±)-{[7-pyridin-3-yl-5-(trifluoromethyl)-2,3-dihydro-1-benzofuran-2-yl]methyl}amine], the pKi in data set [1] was 7.92. Also, at human 5-HT2C receptor, the Emax worked out at 90% and the pEC50 is 7.31.

Take `CC(C)c1ccccc1-c1cccc2c1OC(CN)C2` (racemic) [Example 61, (±)-[7-(2-isopropylphenyl)-2,3-dihydro-1-benzofuran-2-yl]methylamine]: the pKi in data set [1] is 7.43. In addition, at human 5-HT2C receptor, the Emax stood at 30% and the pEC50 was 5.96.

For `CNCC1Cc2ccc(F)c(-c3ccccc3C)c2O1` (racemic) [Example 401, (±)-{[6-fluoro-7-(2-methylphenyl)-2,3-dihydro-1-benzofuran-2-yl]methyl}methylamine], the pKi in data set [1] is 9.42. In addition, on human 5-HT2C receptor, the Emax turned out to be 90% and the pEC50 was 9.15.

Regarding `COc1cc2c(c(-c3cccc(Cl)c3Cl)c1)OC(CN)C2` (racemic) [Example 362, (±)-{[7-(2,3-dichlorophenyl)-5-methoxy-2,3-dihydro-1-benzofuran-2-yl]methyl}amine], the pKi in data set [1] was 7.44. At human 5-HT2C receptor, the Emax was 70% and the pEC50 was 6.46.
